In US6613747B2, “6-O-carbamoyl ketolide antibacterials” (Ortho-McNeil Pharmaceutical, Inc., priority 2000, dated 2003):
≈ marks a conversion by molar mass, not a printed value.

What was measured:
Experiment in all cases: MIC, microdilution broth method (NCCLS)
Assay type in all cases: cell-based
E. coli OC2605 = conditions: A: E. coli OC2605, 35° C., 16-20 hours
Method in brief: (§1)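 MIC is read as growth in drug wells versus untreated growth-control wells after 16-20 hours at 35° C. Drug was serially diluted two-fold in cation-adjusted Mueller-Hinton broth. Turbidity-adjusted cultures gave about 5×10^4 CFU per well.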

E. faecalis ATCC29212 = conditions: C: E. faecalis ATCC29212, 35° C., 16-20 hours
Method in brief: as §1

H. influenzae ATCC49247 = conditions: E: H. influenzae ATCC49247, 35° C., 16-20 hours
Method in brief: as §1

S. aureus ATCC29213 = conditions: B: S. aureus ATCC29213, 35° C., 16-20 hours
Method in brief: as §1

S. pneumoniae ATCC49619 = conditions: D: S. pneumoniae ATCC49619, 35° C., 16-20 hours
Method in brief: as §1

| Structure (SMILES) | MIC (E. coli OC2605) [µg/mL] | MIC (E. faecalis ATCC29212) | MIC (H. influenzae ATCC49247) [µg/mL] | MIC (S. aureus ATCC29213) [µg/mL] | MIC (S. pneumoniae ATCC49619) |
| --- | --- | --- | --- | --- | --- |
| CC[C@H]1OC(=O)[C@H](C)C(=O)[C@H](C)[C@@H](O[C@@H]2O[C@H](C)C[C@H](N(C)C)[C@H]2O)[C@](C)(OC(=O)NC/C=C/c2ccc(-n3cncn3)c(F)c2)C[C@@H](C)C(=O)[C@H](C)[C@H]2NC(=O)O[C@@]21C [Compound 53] | 16 (≈ 19 µM) | 0.12 µg/mL (≈ 0.142 µM) | 4 (≈ 4.75 µM) | 0.25 (≈ 0.297 µM) | 0.03 µg/mL (≈ 0.0356 µM) |
| CC[C@H]1OC(=O)[C@H](C)C(=O)[C@H](C)[C@@H](O[C@@H]2O[C@H](C)C[C@H](N(C)C)[C@H]2O)[C@](C)(OC(=O)NCC=C(c2ccccc2)c2ccccc2)C[C@@H](C)C(=O)[C@H](C)[C@H]2NC(=O)O[C@@]21C [Compound 54] | >16 | 0.5 µg/mL (≈ 0.6 µM) | 2 (≈ 2.4 µM) | 1 (≈ 1.2 µM) | 0.12 µg/mL (≈ 0.144 µM) |
| CC[C@H]1OC(=O)[C@H](C)C(=O)[C@H](C)[C@@H](O[C@@H]2O[C@H](C)C[C@H](N(C)C)[C@H]2O)[C@](C)(OC(=O)NCc2ccc(-n3cncn3)c(F)c2)C[C@@H](C)C(=O)[C@H](C)[C@H]2NC(=O)O[C@@]21C [Compound 55] | 16 (≈ 19.6 µM) | 0.12 µg/mL (≈ 0.147 µM) | 4 (≈ 4.9 µM) | 0.5 (≈ 0.612 µM) | 0.03 µg/mL (≈ 0.0367 µM) |
| CC[C@H]1OC(=O)[C@H](C)C(=O)[C@H](C)[C@@H](O[C@@H]2O[C@H](C)C[C@H](N(C)C)[C@H]2O)[C@](C)(OC(=O)NCc2ccc(-c3ccccn3)s2)C[C@@H](C)C(=O)[C@H](C)[C@H]2NC(=O)O[C@@]21C [Compound 56] | 8 (≈ 9.82 µM) | 0.06 µg/mL (≈ 0.0736 µM) | 2 (≈ 2.45 µM) | 0.25 (≈ 0.307 µM) | ≦0.015 μg/mL |
| CC[C@H]1OC(=O)[C@H](C)C(=O)[C@H](C)[C@@H](O[C@@H]2O[C@H](C)C[C@H](N(C)C)[C@H]2O)[C@](C)(OC(=O)NC/C=C/c2ccc(-c3ccccn3)s2)C[C@@H](C)C(=O)[C@H](C)[C@H]2NC(=O)O[C@@]21C [Compound 57] | 16 (≈ 19 µM) | 0.12 µg/mL (≈ 0.143 µM) | 2 (≈ 2.38 µM) | 0.25 (≈ 0.297 µM) | 0.03 µg/mL (≈ 0.0357 µM) |
| CC[C@H]1OC(=O)[C@H](C)C(=O)[C@H](C)[C@@H](O[C@@H]2O[C@H](C)C[C@H](N(C)C)[C@H]2O)[C@](C)(OC(=O)NC/C=C/c2ccc(-n3cccn3)c(F)c2)C[C@@H](C)C(=O)[C@H](C)[C@H]2NC(=O)O[C@@]21C [Compound 58] | >16 | 0.12 µg/mL (≈ 0.143 µM) | 4 (≈ 4.75 µM) | 0.25 (≈ 0.297 µM) | 0.06 µg/mL (≈ 0.0713 µM) |
| CC[C@H]1OC(=O)[C@H](C)C(=O)[C@H](C)[C@@H](O[C@@H]2O[C@H](C)C[C@H](N(C)C)[C@H]2O)[C@](C)(OC(=O)NCc2ccc(-n3cccn3)c(F)c2)C[C@@H](C)C(=O)[C@H](C)[C@H]2NC(=O)O[C@@]21C [Compound 59] | >16 | ≦0.25 μg/mL | 4 (≈ 4.9 µM) | 0.5 (≈ 0.613 µM) | 0.03 µg/mL (≈ 0.0368 µM) |
| CC[C@H]1OC(=O)[C@H](C)C(=O)[C@H](C)[C@@H](O[C@@H]2O[C@H](C)C[C@H](N(C)C)[C@H]2O)[C@](C)(OC(=O)NC/C=C/C=C/c2ccc(-n3cccn3)cc2)C[C@@H](C)C(=O)[C@H](C)[C@H]2NC(=O)O[C@@]21C [Compound 60] | >16 | 0.5 µg/mL (≈ 0.588 µM) | 8 (≈ 9.41 µM) | 1 (≈ 1.18 µM) | 0.25 µg/mL (≈ 0.294 µM) |
| CC[C@H]1OC(=O)[C@H](C)C(=O)[C@H](C)[C@@H](O[C@@H]2O[C@H](C)C[C@H](N(C)C)[C@H]2O)[C@](C)(OC(=O)NCc2cnn(-c3ccccc3)c2)C[C@@H](C)C(=O)[C@H](C)[C@H]2NC(=O)O[C@@]21C [Compound 61] | 16 (≈ 20.1 µM) | 0.06 µg/mL (≈ 0.0752 µM) | 2 (≈ 2.51 µM) | 0.5 (≈ 0.627 µM) | 0.03 µg/mL (≈ 0.0376 µM) |
| CC[C@H]1OC(=O)[C@H](C)C(=O)[C@H](C)[C@@H](O[C@@H]2O[C@H](C)C[C@H](N(C)C)[C@H]2O)[C@](C)(OC(=O)NC/C=C/c2cnn(-c3ccccc3)c2)C[C@@H](C)C(=O)[C@H](C)[C@H]2NC(=O)O[C@@]21C [Compound 62] | >16 | 0.12 µg/mL (≈ 0.146 µM) | 4 (≈ 4.85 µM) | 0.25 (≈ 0.303 µM) | 0.06 µg/mL (≈ 0.0728 µM) |
| CC[C@H]1OC(=O)[C@H](C)C(=O)[C@H](C)[C@@H](O[C@@H]2O[C@H](C)C[C@H](N(C)C)[C@H]2O)[C@](C)(OC(=O)NCc2ccc(-n3cc(C)cn3)cc2)C[C@@H](C)C(=O)[C@H](C)[C@H]2NC(=O)O[C@@]21C [Compound 64] | >16 | 0.12 µg/mL (≈ 0.148 µM) | 4 (≈ 4.93 µM) | 1 (≈ 1.23 µM) | 0.03 µg/mL (≈ 0.0369 µM) |
| CC[C@H]1OC(=O)[C@H](C)C(=O)[C@H](C)[C@@H](O[C@@H]2O[C@H](C)C[C@H](N(C)C)[C@H]2O)[C@](C)(OC(=O)NCc2cccc(-c3ncccn3)c2)C[C@@H](C)C(=O)[C@H](C)[C@H]2NC(=O)O[C@@]21C [Compound 65] | >16 | 0.25 µg/mL (≈ 0.309 µM) | 8 (≈ 9.88 µM) | 2 (≈ 2.47 µM) | 0.06 µg/mL (≈ 0.0741 µM) |

The next lines start with the values.

| MIC (E. coli OC2605) [µg/mL] | MIC (E. faecalis ATCC29212) | MIC (H. influenzae ATCC49247) [µg/mL] | MIC (S. aureus ATCC29213) [µg/mL] | MIC (S. pneumoniae ATCC49619) | Structure (SMILES) |
| --- | --- | --- | --- | --- | --- |
| >16 | 0.12 µg/mL (≈ 0.144 µM) | 4 (≈ 4.78 µM) | 0.5 (≈ 0.598 µM) | 0.06 µg/mL (≈ 0.0718 µM) | CC[C@H]1OC(=O)[C@H](C)C(=O)[C@H](C)[C@@H](O[C@@H]2O[C@H](C)C[C@H](N(C)C)[C@H]2O)[C@](C)(OC(=O)NC/C=C/c2cccc(-c3ncccn3)c2)C[C@@H](C)C(=O)[C@H](C)[C@H]2NC(=O)O[C@@]21C [Compound 66] |
| >16 | 0.25 µg/mL (≈ 0.298 µM) | 4 (≈ 4.77 µM) | 0.25 (≈ 0.298 µM) | 0.06 µg/mL (≈ 0.0716 µM) | CC[C@H]1OC(=O)[C@H](C)C(=O)[C@H](C)[C@@H](O[C@@H]2O[C@H](C)C[C@H](N(C)C)[C@H]2O)[C@](C)(OC(=O)NC/C=C/c2ccc(-n3cc(C)cn3)cc2)C[C@@H](C)C(=O)[C@H](C)[C@H]2NC(=O)O[C@@]21C [Compound 67] |
| >16 | 0.12 µg/mL (≈ 0.141 µM) | 4 (≈ 4.71 µM) | 0.25 (≈ 0.294 µM) | 0.03 µg/mL (≈ 0.0353 µM) | CC[C@H]1OC(=O)[C@H](C)C(=O)[C@H](C)[C@@H](O[C@@H]2O[C@H](C)C[C@H](N(C)C)[C@H]2O)[C@](C)(OC(=O)NC/C=C/c2ccc(-c3nccc(C)n3)cc2)C[C@@H](C)C(=O)[C@H](C)[C@H]2NC(=O)O[C@@]21C [Compound 68] |
| >16 | 0.12 µg/mL (≈ 0.146 µM) | 8 (≈ 9.71 µM) | 0.5 (≈ 0.607 µM) | 0.03 µg/mL (≈ 0.0364 µM) | CC[C@H]1OC(=O)[C@H](C)C(=O)[C@H](C)[C@@H](O[C@@H]2O[C@H](C)C[C@H](N(C)C)[C@H]2O)[C@](C)(OC(=O)NCc2ccc(-c3nccc(C)n3)cc2)C[C@@H](C)C(=O)[C@H](C)[C@H]2NC(=O)O[C@@]21C [Compound 69] |
| 16 (≈ 19 µM) | 0.12 µg/mL (≈ 0.143 µM) | 4 (≈ 4.76 µM) | 0.25 (≈ 0.298 µM) | 0.03 µg/mL (≈ 0.0357 µM) | CC[C@H]1OC(=O)[C@H](C)C(=O)[C@H](C)[C@@H](O[C@@H]2O[C@H](C)C[C@H](N(C)C)[C@H]2O)[C@](C)(OC(=O)NCc2ccc(-c3nccc(OC)n3)cc2)C[C@@H](C)C(=O)[C@H](C)[C@H]2NC(=O)O[C@@]21C [Compound 70] |
| >16 | 0.12 µg/mL (≈ 0.139 µM) | 4 (≈ 4.62 µM) | 0.25 (≈ 0.289 µM) | 0.06 µg/mL (≈ 0.0693 µM) | CC[C@H]1OC(=O)[C@H](C)C(=O)[C@H](C)[C@@H](O[C@@H]2O[C@H](C)C[C@H](N(C)C)[C@H]2O)[C@](C)(OC(=O)NC/C=C/c2ccc(-c3nccc(OC)n3)cc2)C[C@@H](C)C(=O)[C@H](C)[C@H]2NC(=O)O[C@@]21C [Compound 71] |
| 8 (≈ 9.55 µM) | 0.06 µg/mL (≈ 0.0716 µM) | 2 (≈ 2.39 µM) | 0.25 (≈ 0.298 µM) | ≦0.015 μg/mL | CC[C@H]1OC(=O)[C@H](C)C(=O)[C@H](C)[C@@H](O[C@@H]2O[C@H](C)C[C@H](N(C)C)[C@H]2O)[C@](C)(OC(=O)NC/C=C/c2ccc(Br)nc2)C[C@@H](C)C(=O)[C@H](C)[C@H]2NC(=O)O[C@@]21C [Compound 72] |
| 16 (≈ 19.6 µM) | 0.06 µg/mL (≈ 0.0735 µM) | 2 (≈ 2.45 µM) | 0.5 (≈ 0.613 µM) | 0.03 µg/mL (≈ 0.0368 µM) | CC[C@H]1OC(=O)[C@H](C)C(=O)[C@H](C)[C@@H](O[C@@H]2O[C@H](C)C[C@H](N(C)C)[C@H]2O)[C@](C)(OC(=O)NCc2ccc(-n3cccn3)cc2F)C[C@@H](C)C(=O)[C@H](C)[C@H]2NC(=O)O[C@@]21C [Compound 73] |
| 16 (≈ 19 µM) | 0.06 µg/mL (≈ 0.0713 µM) | 1 (≈ 1.19 µM) | 0.06 (≈ 0.0713 µM) | ≦0.015 μg/mL | CC[C@H]1OC(=O)[C@H](C)C(=O)[C@H](C)[C@@H](O[C@@H]2O[C@H](C)C[C@H](N(C)C)[C@H]2O)[C@](C)(OC(=O)NC/C=C/c2ccc(-n3cccn3)cc2F)C[C@@H](C)C(=O)[C@H](C)[C@H]2NC(=O)O[C@@]21C [Compound 74] |
| >16 | 0.12 µg/mL (≈ 0.141 µM) | 4 (≈ 4.68 µM) | 0.25 (≈ 0.293 µM) | 0.03 µg/mL (≈ 0.0351 µM) | CCC1OC(=O)C(C)(F)C(=O)C(C)C(OC2OC(C)CC(N(C)C)C2O)C(C)(OC(=O)NCC=Cc2ccc(-c3ncccn3)cc2)CC(C)C(=O)C(C)C2NC(=O)OC12C (centres unmarked) [Compound 75] |
